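Step 1: Grow cells in 96-well plates. Step 2: Expose to compound for 48 hours at 5 concentrations. Step 3: Interpolate endpoints linearly; if unreached, use highest concentration. TGI is the concentration that stops growth completely.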
Tests used:
Assay in all cases: inhibition of tumour cell growth, NCI panel, 48 h
ACHN renal = test system: ACHN renal
CCRF-CEM leukemia = test system: CCRF-CEM leukemia
DU-145 prostate = test system: DU-145 prostate
HCT-15 colon = test system: HCT-15 colon
HOP-62 NSCLC = test system: HOP-62 NSCLC
HS 578T breast = test system: HS 578T breast
MDA-N = test system: MDA-N
MOLT-4 leukemia = test system: MOLT-4 leukemia
NCI-H522 lung = test system: NCI-H522 lung
NCI/ADR-RES ovarian = test system: NCI/ADR-RES ovarian
OVCAR-3 ovarian = test system: OVCAR-3 ovarian
SF-268 CNS = test system: SF-268 CNS
SF-295 CNS = test system: SF-295 CNS
SK-MEL-28 melanoma = test system: SK-MEL-28 melanoma
SK-OV-3 ovarian = test system: SK-OV-3 ovarian
SW-620 colon = test system: SW-620 colon
T-47D breast = test system: T-47D breast
U251 CNS = test system: U251 CNS
UO-31 renal = test system: UO-31 renal
OVCAR-4 ovarian = test system: OVCAR-4 ovarian

Structure (SMILES)	TGI (ACHN renal) [µM]	TGI (CCRF-CEM leukemia) [µM]	TGI (DU-145 prostate) [µM]	TGI (HCT-15 colon) [µM]	TGI (HOP-62 NSCLC) [µM]	TGI (HS 578T breast) [µM]	TGI (MDA-N) [µM]	TGI (MOLT-4 leukemia) [µM]	TGI (NCI-H522 lung) [µM]	TGI (NCI/ADR-RES ovarian) [µM]	TGI (OVCAR-3 ovarian) [µM]	TGI (SF-268 CNS) [µM]	TGI (SF-295 CNS) [µM]	TGI (SK-MEL-28 melanoma) [µM]	TGI (SK-OV-3 ovarian) [µM]	TGI (SW-620 colon) [µM]	TGI (T-47D breast) [µM]	TGI (U251 CNS) [µM]	TGI (UO-31 renal) [µM]	TGI (OVCAR-4 ovarian) [µM]
CCOC(=O)c1cc(=O)c2ccnc3c2n1CCS3	> 100	> 100	> 100	> 100	> 100	> 100	> 100	> 100	74.4	> 100	> 100	> 100	> 100	> 100	> 100	> 100	> 100	> 100	> 100	–
N=C(N)C1CN(CCCCCCCCCCN2CC(C(=N)N)C(=O)NC2=O)C(=O)NC1=O (stereo not drawn)	> 10	> 10	–	> 10	> 10	> 10	> 10	> 10	> 10	> 10	> 10	–	> 10	–	> 10	> 10	> 10	> 10	–	> 10
CC1(C)CC(C2=NCCO2)CC(C)(C)N1	> 100	> 100	> 100	> 100	> 100	> 100	> 100	> 100	–	> 100	> 100	> 100	> 100	> 100	> 100	–	> 100	> 100	> 100	> 100
N#C[C@@H](c1nc2ccccc2s1)c1ncccc1[N+](=O)[O-]	> 31.6	–	> 31.6	> 31.6	> 57.6	27.6	> 31.6	> 31.6	12	19.4	10.6	> 31.6	40.7	–	> 61.1	–	25	11.7	25.6	> 100
Fc1ccc(Oc2nc3ccc(C(F)(F)F)cc3nc2-c2ccccc2)cc1	> 100	> 10	> 100	> 100	> 100	99.5	> 100	> 100	> 100	> 100	> 100	> 100	> 100	–	> 100	> 10	> 100	–	> 100	> 100
COc1ccc(/C=C2\NC(=S)N(/C=C3\C(=O)Oc4ccccc4C3=O)C2=O)cc1OC	> 100	> 100	> 100	> 100	> 100	> 100	> 100	> 100	> 100	> 100	> 100	> 100	> 100	–	> 100	> 100	> 100	> 100	> 100	> 100
CCN1CCC(O)(c2ccc(Oc3ccccc3)cc2)C(C(=O)c2ccc(Oc3ccccc3)cc2)C1 (stereo not drawn)	29.8	25.5	27.5	25.7	25.3	78.1	26.7	32.1	43.9	35.1	31.9	35.6	27.5	26.5	–	26.4	28.4	24.2	21.8	25.3
CN1CCN(C(=S)N(C(=O)c2ccc(Cl)cc2)c2ccccc2)CC1	> 100	–	> 100	> 100	–	> 100	> 100	> 100	> 100	–	> 100	> 100	> 100	> 100	–	> 100	> 100	> 100	> 100	> 100
Cc1c(C)c(C)c(-n2c(=O)n(C)c(=O)n2-n2c(=O)n(C)c(=O)n2-c2c(C)c(C)c(C)c(C)c2C)c(C)c1C	–	–	> 100	> 100	–	> 100	> 100	> 100	> 100	> 100	> 100	> 100	–	> 100	> 100	> 100	> 100	> 100	> 100	> 100
O=c1c2ccccc2nc(-c2cc3c(cc2Cl)Sc2nccn2S3(=O)=O)n1-c1ccccc1	> 100	–	51.8	33	35.7	42.7	33.8	> 100	> 100	46.8	29.4	22.2	52.9	41.8	> 100	47.5	23.8	30.5	31.7	44.8
CC12O[C@]3([C@H](C(=O)N4CCOC43C)[C@H]1Cl)[C@H]1O[C@H]12 (stereo partly drawn)	> 100	–	> 100	> 100	> 100	> 100	> 100	> 100	> 100	> 100	> 100	> 100	> 100	> 100	> 100	> 100	> 100	> 100	> 100	> 100
CCc1cc2c(c3c1CCC3=O)CC1(Cc3ccc(C)cc3C1)C2 (stereo not drawn)	> 100	34.7	–	> 100	> 100	86.9	> 100	68.7	> 100	> 100	> 100	–	> 100	–	> 100	–	> 100	> 100	–	98
CCOC(=O)c1nnsc1NC(=O)Nc1ccc(Cc2ccc(NC(=O)Nc3snnc3C(=O)OCC)cc2)cc1	> 100	> 100	> 100	> 100	> 100	> 100	> 100	> 100	–	> 100	> 100	> 100	> 100	> 100	54.8	> 100	> 100	> 100	> 100	> 100
C=C[C@@]1(C)CC[C@@H]2[C@@]3(C1)O[C@H]3CC1[C@](C)(C(=O)OC)CCC[C@@]12C (stereo partly drawn)	29.5	–	> 100	35.8	40.6	44.2	56.8	42.2	31.6	42.1	31.9	38.4	29.3	42.1	69.6	41.9	55.9	49.6	31.8	> 100
O=NN1C(c2ccccc2)CC(=NO)CC1c1ccccc1 (stereo not drawn)	> 100	–	> 100	> 100	> 100	> 100	> 100	> 100	> 100	> 100	> 100	> 100	> 100	> 100	> 100	> 100	> 100	> 100	> 100	> 100
CN1CC[C@]23c4c5ccc(O)c4O[C@H]2C(O)CC[C@@]3(O)[C@H]1C5 (stereo partly drawn)	> 100	–	> 100	> 100	> 100	> 100	> 100	> 100	> 100	> 100	> 100	> 100	> 100	> 100	> 100	> 100	> 100	> 100	> 100	> 100
CCCc1cc(=O)oc2c3c(c4c(c12)OC(C)(C)CC4)O[C@@H](C)[C@H](C)[C@H]3O	–	17.8	31.8	25.2	33.4	37.5	16.4	13.7	–	29.1	32.7	30.3	28.5	42	32.6	36.8	23.2	29.6	19	22.5
O=[N+]([O-])C(=C(Nc1ccccc1)Nc1ccccc1)/C(Cl)=C(\Cl)[N+](=O)[O-]	7.12	92.5	8.92	12.3	26.4	8.74	10.5	17.7	–	38.5	12	14.6	26.1	16.3	> 100	5.6	7.43	18.1	8.21	17.6
Cc1ccc2nc(Cl)c(/C=N/N3C(=O)/C(=C/c4cccc([N+](=O)[O-])c4)N=C3c3ccccc3)cc2c1	> 100	97	> 100	> 100	> 100	> 100	42.2	80.5	–	> 100	> 100	> 100	> 100	> 100	> 100	> 100	> 100	> 100	> 100	> 100

Source: PubChem BioAssay (NCI)
